Assay results published in the NIST ThermoML archive (doi:10.1016/j.jct.2017.11.017).
Numbers after ± are expanded uncertainties. One block for each compound: values may come before it.

Experiment: activity coefficient (dimensionless); of the first substance listed, at infinite dilution; xn = mol fraction of the nth substance listed
Details: 101.33 kPa, Liquid, Chromatography, x1 = 0

SMILES: CCC(C)(C)OC [2-methoxy-2-methylbutane] + C[N+]1(CCCO)CCOCC1.N#C[N-]C#N
activity coefficient (308.15 K): 97.2 ± 6.7
activity coefficient (318.15 K): 90.2 ± 6.2
activity coefficient (328.15 K): 84.1 ± 5.8
activity coefficient (338.15 K): 78.6 ± 5.4
activity coefficient (348.15 K): 74 ± 5.1
activity coefficient (358.15 K): 69.9 ± 4.8
activity coefficient (368.15 K): 66 ± 5

SMILES: CCCCCCCC [octane] + C[N+]1(CCCO)CCOCC1.N#C[N-]C#N
activity coefficient (298.15 K): 2070 ± 140
activity coefficient (308.15 K): 1730 ± 120
activity coefficient (318.15 K): 1460 ± 100
activity coefficient (328.15 K): 1260 ± 87
activity coefficient (338.15 K): 1090 ± 75

SMILES: CCCOCCC [dipropyl ether] + C[n+]1ccn(CCCO)c1.N#CN=C=[N-]
activity coefficient (318.15 K): 82.3 ± 5.6
activity coefficient (328.15 K): 79.9 ± 5.5
activity coefficient (338.15 K): 77.7 ± 5.3
activity coefficient (348.15 K): 75.8 ± 5.2
activity coefficient (358.15 K): 74.4 ± 5.1
activity coefficient (368.15 K): 72.5 ± 5

SMILES: CO [methanol] + C[n+]1ccn(CCCO)c1.N#CN=C=[N-]
activity coefficient (318.15 K): 0.63 ± 0.04
activity coefficient (328.15 K): 0.64 ± 0.04
activity coefficient (338.15 K): 0.654 ± 0.045
activity coefficient (348.15 K): 0.66 ± 0.05
activity coefficient (358.15 K): 0.679 ± 0.046
activity coefficient (368.15 K): 0.69 ± 0.05

SMILES: CCCC(C)=O [pentan-2-one] + C[N+]1(CCCO)CCOCC1.N#C[N-]C#N
activity coefficient (318.15 K): 7.85 ± 0.54
activity coefficient (328.15 K): 7.96 ± 0.54
activity coefficient (338.15 K): 8.1 ± 0.55
activity coefficient (348.15 K): 8.23 ± 0.56
activity coefficient (358.15 K): 8.33 ± 0.57
activity coefficient (368.15 K): 8.44 ± 0.58

SMILES: C#CCCCC [1-hexyne] + C[N+]1(CCCO)CCOCC1.N#C[N-]C#N
activity coefficient (308.15 K): 44.5 ± 3
activity coefficient (318.15 K): 42.9 ± 2.9
activity coefficient (328.15 K): 41.6 ± 2.8
activity coefficient (338.15 K): 40.2 ± 2.8
activity coefficient (348.15 K): 39.1 ± 2.7
activity coefficient (358.15 K): 38 ± 2.6
activity coefficient (368.15 K): 37 ± 2.5

SMILES: CCCC=O [butanal] + C[N+]1(CCCO)CCOCC1.N#C[N-]C#N
activity coefficient (318.15 K): 4.26 ± 0.29
activity coefficient (328.15 K): 4.49 ± 0.31
activity coefficient (338.15 K): 4.74 ± 0.32
activity coefficient (348.15 K): 4.97 ± 0.34
activity coefficient (358.15 K): 5.19 ± 0.35
activity coefficient (368.15 K): 5.38 ± 0.37

SMILES: C=Cc1ccccc1 [styrene] + C[N+]1(CCCO)CCOCC1.N#C[N-]C#N
activity coefficient (318.15 K): 9.96 ± 0.68
activity coefficient (328.15 K): 10.3 ± 0.7
activity coefficient (338.15 K): 10.5 ± 0.7
activity coefficient (348.15 K): 10.8 ± 0.7
activity coefficient (358.15 K): 11 ± 0.8
activity coefficient (368.15 K): 11.3 ± 0.8

SMILES: CCC(=O)CC [pentan-3-one] + C[n+]1ccn(CCCO)c1.N#CN=C=[N-]
activity coefficient (318.15 K): 5.1 ± 0.35
activity coefficient (328.15 K): 5.29 ± 0.36
activity coefficient (338.15 K): 5.54 ± 0.38
activity coefficient (348.15 K): 5.71 ± 0.39
activity coefficient (358.15 K): 5.95 ± 0.41
activity coefficient (368.15 K): 6.11 ± 0.42

SMILES: COC(C)=O [methyl ethanoate] + C[n+]1ccn(CCCO)c1.N#CN=C=[N-]
activity coefficient (318.15 K): 3.07 ± 0.21
activity coefficient (328.15 K): 3.21 ± 0.22
activity coefficient (338.15 K): 3.35 ± 0.23
activity coefficient (348.15 K): 3.5 ± 0.24
activity coefficient (358.15 K): 3.64 ± 0.25
activity coefficient (368.15 K): 3.8 ± 0.26

SMILES: CCc1ccccc1 [ethylbenzene] + C[N+]1(CCCO)CCOCC1.N#C[N-]C#N
activity coefficient (318.15 K): 26.4 ± 1.8
activity coefficient (328.15 K): 26.3 ± 1.8
activity coefficient (338.15 K): 26.3 ± 1.8
activity coefficient (348.15 K): 26.2 ± 1.8
activity coefficient (358.15 K): 26.2 ± 1.8
activity coefficient (368.15 K): 26.2 ± 1.8

SMILES: Cc1cccc(C)c1 [1,3-dimethylbenzene] + C[n+]1ccn(CCCO)c1.N#CN=C=[N-]
activity coefficient (318.15 K): 14.1 ± 1
activity coefficient (328.15 K): 14.5 ± 1
activity coefficient (338.15 K): 14.9 ± 1
activity coefficient (348.15 K): 15.2 ± 1
activity coefficient (358.15 K): 15.6 ± 1.1
activity coefficient (368.15 K): 16 ± 1.1

SMILES: CO [methanol] + C[N+]1(CCCO)CCOCC1.N#C[N-]C#N
activity coefficient (318.15 K): 0.753 ± 0.05
activity coefficient (328.15 K): 0.763 ± 0.05
activity coefficient (338.15 K): 0.771 ± 0.05
activity coefficient (348.15 K): 0.778 ± 0.051
activity coefficient (358.15 K): 0.788 ± 0.051
activity coefficient (368.15 K): 0.791 ± 0.051

SMILES: O [water] + C[N+]1(CCCO)CCOCC1.N#C[N-]C#N
activity coefficient (318.15 K): 0.364 ± 0.033
activity coefficient (328.15 K): 0.373 ± 0.033
activity coefficient (338.15 K): 0.384 ± 0.033
activity coefficient (348.15 K): 0.395 ± 0.034
activity coefficient (358.15 K): 0.404 ± 0.034
activity coefficient (368.15 K): 0.414 ± 0.034

SMILES: C1COCCO1 [1,4-dioxane] + C[N+]1(CCCO)CCOCC1.N#C[N-]C#N
activity coefficient (318.15 K): 1.94 ± 0.13
activity coefficient (328.15 K): 2.07 ± 0.14
activity coefficient (338.15 K): 2.2 ± 0.15
activity coefficient (348.15 K): 2.33 ± 0.16
activity coefficient (358.15 K): 2.45 ± 0.17
activity coefficient (368.15 K): 2.59 ± 0.18

activity coefficient (298.15 K): 74 ± 5.1
activity coefficient (308.15 K): 68.1 ± 4.7
activity coefficient (318.15 K): 63.5 ± 4.3
activity coefficient (328.15 K): 59.3 ± 4.1
SMILES: C=CCCC [1-pentene] + C[n+]1ccn(CCCO)c1.N#CN=C=[N-]

SMILES: c1ccsc1 [thiophene] + C[N+]1(CCCO)CCOCC1.N#C[N-]C#N
activity coefficient (318.15 K): 3.23 ± 0.22
activity coefficient (328.15 K): 3.37 ± 0.23
activity coefficient (338.15 K): 3.51 ± 0.24
activity coefficient (348.15 K): 3.64 ± 0.25
activity coefficient (358.15 K): 3.77 ± 0.26
activity coefficient (368.15 K): 3.9 ± 0.27

SMILES: C#CCCCCCC [1-octyne] + C[n+]1ccn(CCCO)c1.N#CN=C=[N-]
activity coefficient (298.15 K): 60.1 ± 4.1
activity coefficient (308.15 K): 60.2 ± 4.1
activity coefficient (318.15 K): 59.8 ± 4.1
activity coefficient (328.15 K): 59.6 ± 4.1
activity coefficient (338.15 K): 59.6 ± 4.1
activity coefficient (348.15 K): 59.4 ± 4.1
activity coefficient (358.15 K): 59.6 ± 4.1

SMILES: COC(C)(C)C [2-methoxy-2-methylpropane] + C[N+]1(CCCO)CCOCC1.N#C[N-]C#N
activity coefficient (308.15 K): 55.8 ± 3.8
activity coefficient (318.15 K): 52.4 ± 3.6
activity coefficient (328.15 K): 49.7 ± 3.4
activity coefficient (338.15 K): 47.1 ± 3.2
activity coefficient (348.15 K): 45 ± 3.1
activity coefficient (358.15 K): 42.9 ± 2.9
activity coefficient (368.15 K): 41.3 ± 2.8

SMILES: CCCCO [butan-1-ol] + C[n+]1ccn(CCCO)c1.N#CN=C=[N-]
activity coefficient (318.15 K): 2.8 ± 0.19
activity coefficient (328.15 K): 2.75 ± 0.19
activity coefficient (338.15 K): 2.73 ± 0.19
activity coefficient (348.15 K): 2.7 ± 0.18
activity coefficient (358.15 K): 2.69 ± 0.18
activity coefficient (368.15 K): 2.68 ± 0.18

SMILES: CCCC(=O)OC [methyl butanoate] + C[n+]1ccn(CCCO)c1.N#CN=C=[N-]
activity coefficient (318.15 K): 9.03 ± 0.62
activity coefficient (328.15 K): 9.36 ± 0.64
activity coefficient (338.15 K): 9.67 ± 0.66
activity coefficient (348.15 K): 9.96 ± 0.68
activity coefficient (358.15 K): 10.3 ± 0.7
activity coefficient (368.15 K): 10.6 ± 0.7

SMILES: CCOCC [diethyl ether] + C[N+]1(CCCO)CCOCC1.N#C[N-]C#N
activity coefficient (298.15 K): 59.3 ± 4.1
activity coefficient (308.15 K): 51.3 ± 3.5
activity coefficient (318.15 K): 44.7 ± 3.1
activity coefficient (328.15 K): 39.2 ± 2.7
activity coefficient (338.15 K): 35 ± 2.4

SMILES: CCCCCCCC [octane] + C[n+]1ccn(CCCO)c1.N#CN=C=[N-]
activity coefficient (298.15 K): 881 ± 61
activity coefficient (308.15 K): 779 ± 54
activity coefficient (318.15 K): 698 ± 48
activity coefficient (328.15 K): 626 ± 43
activity coefficient (338.15 K): 560 ± 39
activity coefficient (348.15 K): 509 ± 35
activity coefficient (358.15 K): 465 ± 32

SMILES: CCCCCO [pentan-1-ol] + C[N+]1(CCCO)CCOCC1.N#C[N-]C#N
activity coefficient (318.15 K): 7.75 ± 0.53
activity coefficient (328.15 K): 7.49 ± 0.51
activity coefficient (338.15 K): 7.26 ± 0.5
activity coefficient (348.15 K): 7.11 ± 0.48
activity coefficient (358.15 K): 6.88 ± 0.47
activity coefficient (368.15 K): 6.76 ± 0.46

SMILES: C1CCCCCCC1 [cyclooctane] + C[n+]1ccn(CCCO)c1.N#CN=C=[N-]
activity coefficient (298.15 K): 216 ± 15
activity coefficient (308.15 K): 198 ± 14
activity coefficient (318.15 K): 181 ± 12
activity coefficient (328.15 K): 165 ± 11
activity coefficient (338.15 K): 153 ± 11
activity coefficient (348.15 K): 143 ± 10
activity coefficient (358.15 K): 137 ± 9

SMILES: CCC[N+](=O)[O-] [1-nitropropane] + C[N+]1(CCCO)CCOCC1.N#C[N-]C#N
activity coefficient (318.15 K): 3.26 ± 0.22
activity coefficient (328.15 K): 3.35 ± 0.23
activity coefficient (338.15 K): 3.47 ± 0.24
activity coefficient (348.15 K): 3.55 ± 0.24
activity coefficient (358.15 K): 3.65 ± 0.25
activity coefficient (368.15 K): 3.74 ± 0.25

SMILES: Cc1ccc(C)cc1 [1,4-dimethylbenzene] + C[n+]1ccn(CCCO)c1.N#CN=C=[N-]
activity coefficient (318.15 K): 13.5 ± 0.9
activity coefficient (328.15 K): 13.9 ± 1
activity coefficient (338.15 K): 14.3 ± 1
activity coefficient (348.15 K): 14.7 ± 1
activity coefficient (358.15 K): 15.1 ± 1
activity coefficient (368.15 K): 15.5 ± 1.1

SMILES: CC(C)c1ccccc1 [isopropylbenzene] + C[N+]1(CCCO)CCOCC1.N#C[N-]C#N
activity coefficient (318.15 K): 52.5 ± 3.6
activity coefficient (328.15 K): 51.2 ± 3.5
activity coefficient (338.15 K): 50.3 ± 3.4
activity coefficient (348.15 K): 49.2 ± 3.4
activity coefficient (358.15 K): 48.4 ± 3.3
activity coefficient (368.15 K): 47.5 ± 3.3
